The melting point is the temperature of the solid-liquid transition. The term IC50 denotes the concentration that inhibits the measured activity by half.

The results in this text go back to article PMC6458391, “Deep eutectic solvent for an expeditious sono-synthesis of novel series of bis-quinazolin-4-one derivatives as potential anti-cancer agents” (Royal Society Open Science, 2019).

The subject of series [1] is A549 (lung cancer) cell line. Nature of the series: MTT cytotoxicity assay, A549. The following applies: for inhibition: 48 h, triplicate, mean ± s.e.m.; for IC50: read-out: IC50 A549, MTT, 48 h drug treatment, A549. In general terms: Formazan colour is commonly taken as a measure of viable cells.
Protocol: Two concentrations (10 and 30 µM in triplicate) of the derivatives were utilized and after 48 h of drug treatment the results were analyzed. The obtained results were tabulated as mean ± s.e.m. With standard errors below 10%, the reproducibility between replicate wells is within the acceptable values.
The cytotoxic activities of all newly prepared derivatives were assessed in monolayer cultures by utilizing MTT assay. […] The tested derivatives were prepared prior to the experiment by dissolving in 0.1% DMSO and diluted with medium. The cells were then exposed to two concentrations of drugs (10 and 30 µM) in the volume of 100 µM/well. Cells in the control wells received the same volume of medium comprising 0.1% DMSO. After 24 h, the medium was removed and cell cultures were incubated with 100 ml MTT reagent for 5 h at 37°C. The known number of cells was incubated in a 5% CO2 incubator at 37°C in the presence of different concentrations of test compounds. After 48 h of drug incubation, the MTT solution was added in each well and the absorbance was measured by using a microplate reader at 490 nm. The experiment was performed in triplicate. Cell survival was calculated as the percentage of MTT inhibition as % growth inhibition = 100 − (mean OD of individual test group/mean OD of each control group) × 100.
Setting [2] is: read-out: Cells viability (%) A549, 10 μM, 10 μM.
[3] abbreviates: read-out: Cells viability (%) A549, 30 μM, 30 μM.

Read-outs that look alike come from different tables or passages of the source.

With `Cc1nc2ccc([N+](=O)[O-])cc2c(=O)n1Cc1ccc(Cn2c(C)nc3ccc([N+](=O)[O-])cc3c2=O)cc1` [Compound 4e, 3,3′-(1,4-Phenylenebis(methylene))bis(2-methyl-6-nitroquinazolin-4(3H)-one)], the melting point fell in the range of 350 to 353 °C. In addition, the inhibition in series [1] (setting [2]) worked out at 80.2 ± 2.1%. Also, the inhibition in series [1] (setting [3]) was 87 ± 1.45%. Besides, the IC50 in series [1] was found to be 2.98 µM.
The compound `Cc1nc2ccc([N+](=O)[O-])cc2c(=O)n1CCn1c(C)nc2ccc([N+](=O)[O-])cc2c1=O` [Compound 5e, 3,3′-(Ethane-1,2-diyl)bis(2-methyl-6-nitroquinazolin-4(3H)-one)] registered a melting point of 278 to 279 °C. Further, in series [1] (setting [2]), the inhibition was 91.54 ± 0.56%. The inhibition in series [1] (setting [3]) worked out at 97.83 ± 0.24%. Moreover, the IC50 in series [1] came to 5.05 µM.
`Cc1nc2ccc(F)cc2c(=O)n1-c1ccc(-n2c(C)nc3ccc(F)cc3c2=O)cc1` [Compound 6d, 3,3′-(1,4-Phenylene)bis(6-fluoro-2-methylquinazolin-4(3H)-one)] gave a melting point of 269 to 272 °C. For the same compound, in series [1] (setting [2]), the inhibition amounted to 82.7 ± 1.67%. Moreover, the inhibition in series [1] (setting [3]) was determined as 81.78 ± 0.45%. Moreover, in series [1], the concentration for half-maximal inhibition (IC50) turned out to be 4.54 µM.
